From US20260193264A1, “BENZOYPARAZINE PYRAZINES AND THEIR USES” (FOGHORN THERAPEUTICS INC., priority 2022, published 2026)

Legend:
[1] = target: T1, HiBit-BRG1 fusion protein in stable HeLa cell line expressing HiBit-BRG1 and LgBit (Homo sapiens, UniProt P51532); assay: HiBiT-BRG1 cell-based degradation assay (Nano-Glo HiBiT, 24 h); conditions: HeLa HiBit-BRG1/LgBit cells; for Dmax: top dose 30 μM, read-out: BRG1 HiBit Degradation Maximum (%); for DC50: read-out: BRMG1 HiBit Degradation IC50
T1 construct: expressed in transfected cells
T1 sequence (P51532 whole entry, the tested form may be a part): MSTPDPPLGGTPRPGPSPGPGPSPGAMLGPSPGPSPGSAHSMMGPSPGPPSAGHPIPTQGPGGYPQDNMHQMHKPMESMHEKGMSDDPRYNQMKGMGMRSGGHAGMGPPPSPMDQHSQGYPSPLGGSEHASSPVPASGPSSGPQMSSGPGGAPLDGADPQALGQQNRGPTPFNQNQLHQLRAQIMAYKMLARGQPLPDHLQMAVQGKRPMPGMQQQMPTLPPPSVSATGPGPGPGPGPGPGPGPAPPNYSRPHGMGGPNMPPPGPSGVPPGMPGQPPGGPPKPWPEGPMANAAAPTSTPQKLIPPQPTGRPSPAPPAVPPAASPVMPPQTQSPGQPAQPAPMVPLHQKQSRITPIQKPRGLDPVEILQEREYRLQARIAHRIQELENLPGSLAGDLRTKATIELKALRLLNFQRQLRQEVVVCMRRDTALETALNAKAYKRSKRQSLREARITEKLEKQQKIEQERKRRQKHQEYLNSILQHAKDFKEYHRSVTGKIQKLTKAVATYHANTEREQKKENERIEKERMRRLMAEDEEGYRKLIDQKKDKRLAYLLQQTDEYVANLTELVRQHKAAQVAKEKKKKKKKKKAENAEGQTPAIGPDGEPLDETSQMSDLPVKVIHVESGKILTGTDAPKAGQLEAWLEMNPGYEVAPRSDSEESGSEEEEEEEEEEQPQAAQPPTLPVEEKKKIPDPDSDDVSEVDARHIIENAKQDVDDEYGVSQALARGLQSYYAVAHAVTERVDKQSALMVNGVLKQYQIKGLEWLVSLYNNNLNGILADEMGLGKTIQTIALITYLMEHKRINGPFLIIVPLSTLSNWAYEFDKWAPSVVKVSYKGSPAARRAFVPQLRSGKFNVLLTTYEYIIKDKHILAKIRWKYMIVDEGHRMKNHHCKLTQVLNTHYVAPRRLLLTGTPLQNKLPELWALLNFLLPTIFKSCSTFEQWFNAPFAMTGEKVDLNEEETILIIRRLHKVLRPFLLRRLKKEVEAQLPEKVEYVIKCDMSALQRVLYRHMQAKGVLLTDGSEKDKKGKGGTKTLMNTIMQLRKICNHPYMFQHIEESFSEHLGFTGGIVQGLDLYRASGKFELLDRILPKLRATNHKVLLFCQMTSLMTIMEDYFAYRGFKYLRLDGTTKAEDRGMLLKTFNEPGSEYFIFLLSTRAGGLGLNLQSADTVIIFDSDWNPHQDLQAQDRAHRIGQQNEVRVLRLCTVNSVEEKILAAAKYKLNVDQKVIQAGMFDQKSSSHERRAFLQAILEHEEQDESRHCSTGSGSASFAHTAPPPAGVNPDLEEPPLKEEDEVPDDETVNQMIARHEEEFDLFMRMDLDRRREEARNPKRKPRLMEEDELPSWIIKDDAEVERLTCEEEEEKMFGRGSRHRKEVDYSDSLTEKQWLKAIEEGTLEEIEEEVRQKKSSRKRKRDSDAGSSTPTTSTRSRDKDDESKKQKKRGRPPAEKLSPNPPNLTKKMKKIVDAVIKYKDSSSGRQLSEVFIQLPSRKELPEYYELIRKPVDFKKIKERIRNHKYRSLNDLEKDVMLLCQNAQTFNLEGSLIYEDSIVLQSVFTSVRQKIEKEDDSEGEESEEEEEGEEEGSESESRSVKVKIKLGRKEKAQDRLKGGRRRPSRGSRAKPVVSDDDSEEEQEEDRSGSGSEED
Summary of the method: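 Degradation calculated from NanoBiT luminescence relative to DMSO-treated cells (high) and cells given 2 μM known BRM/BRG1 degrader (low). HeLa cells stably expressing HiBiT-BRG1 plus LgBiT were exposed to compound for 24 h before lytic HiBiT detection.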

[2] = target: T2, HiBiT-BRM fusion protein in stable HeLa cell line (Homo sapiens, UniProt P51531); assay: HiBiT-BRM cell-based degradation assay (Nano-Glo HiBiT Lytic Detection, 24 h); parameters: DC50: scale not given here; conditions: HeLa HiBiT-BRM cells; for DC50: read-out: BRM HiBit Degradation IC50; for BRM HiBit Degradation Maximum (%): top dose 30 μM
T2 construct: expressed in transfected cells
T2 sequence (P51531 whole entry, the tested form may be a part): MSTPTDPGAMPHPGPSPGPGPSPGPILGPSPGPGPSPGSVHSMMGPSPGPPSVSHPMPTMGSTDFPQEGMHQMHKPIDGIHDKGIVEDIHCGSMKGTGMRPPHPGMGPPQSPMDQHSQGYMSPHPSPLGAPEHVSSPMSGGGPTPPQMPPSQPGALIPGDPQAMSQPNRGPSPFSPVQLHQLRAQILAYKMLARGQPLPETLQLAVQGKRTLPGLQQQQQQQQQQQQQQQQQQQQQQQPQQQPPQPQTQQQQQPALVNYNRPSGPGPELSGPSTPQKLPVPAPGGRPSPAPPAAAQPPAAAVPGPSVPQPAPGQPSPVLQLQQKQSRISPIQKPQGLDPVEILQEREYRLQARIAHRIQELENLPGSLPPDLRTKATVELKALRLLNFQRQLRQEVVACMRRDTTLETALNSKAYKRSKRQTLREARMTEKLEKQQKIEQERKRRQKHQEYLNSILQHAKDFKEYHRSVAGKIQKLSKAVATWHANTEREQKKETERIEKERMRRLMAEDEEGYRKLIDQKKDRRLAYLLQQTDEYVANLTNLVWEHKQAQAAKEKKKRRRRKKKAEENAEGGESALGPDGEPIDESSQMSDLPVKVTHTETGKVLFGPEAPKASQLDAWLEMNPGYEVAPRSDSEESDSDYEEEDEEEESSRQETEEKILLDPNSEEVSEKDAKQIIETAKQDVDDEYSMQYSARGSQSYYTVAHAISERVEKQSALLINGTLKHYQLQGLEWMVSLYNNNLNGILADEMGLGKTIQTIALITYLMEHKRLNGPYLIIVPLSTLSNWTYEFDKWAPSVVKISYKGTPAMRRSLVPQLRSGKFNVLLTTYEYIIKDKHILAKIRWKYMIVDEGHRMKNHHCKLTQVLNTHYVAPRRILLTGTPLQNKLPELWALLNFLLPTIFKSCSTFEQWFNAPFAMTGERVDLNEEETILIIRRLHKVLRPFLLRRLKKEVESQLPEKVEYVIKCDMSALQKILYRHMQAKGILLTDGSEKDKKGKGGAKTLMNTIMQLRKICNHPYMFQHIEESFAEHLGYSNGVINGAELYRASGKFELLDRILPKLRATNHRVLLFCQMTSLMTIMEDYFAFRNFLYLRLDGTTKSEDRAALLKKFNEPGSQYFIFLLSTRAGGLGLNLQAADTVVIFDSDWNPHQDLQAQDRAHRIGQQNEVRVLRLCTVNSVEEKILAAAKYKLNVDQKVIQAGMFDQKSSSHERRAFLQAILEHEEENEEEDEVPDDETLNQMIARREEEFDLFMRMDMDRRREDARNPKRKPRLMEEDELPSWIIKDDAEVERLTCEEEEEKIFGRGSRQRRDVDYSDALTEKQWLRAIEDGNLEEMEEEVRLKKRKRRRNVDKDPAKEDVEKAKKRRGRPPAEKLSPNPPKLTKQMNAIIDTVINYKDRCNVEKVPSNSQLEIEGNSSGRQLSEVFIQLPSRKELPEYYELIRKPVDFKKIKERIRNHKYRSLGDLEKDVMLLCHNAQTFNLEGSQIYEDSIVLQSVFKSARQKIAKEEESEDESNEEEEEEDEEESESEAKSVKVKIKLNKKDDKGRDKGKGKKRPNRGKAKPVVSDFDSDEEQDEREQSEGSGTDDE
Summary of the method: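 Percent degradation was scaled between DMSO-treated cells and cells given 2 μM of a known BRM/BRG1 degrader. Readout was NanoBiT luminescence after lytic detection. HeLa cells stably expressing HiBiT-BRM were dosed for 24 h, 10 points, 3-fold steps from 30 μM final, in duplicate.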

Dmax [1] [%] | DC50 [2] [µM] | DC50 [1] [µM] | Compound | BRM HiBit Degradation Maximum (%) [2]
< 50 | < 0.01 |  | Cc1ncsc1-c1ccc([C@H](C)NC(=O)[C@@H]2C[C@@H](O)CN2C(=O)[C@@H](c2cc(N3CC4(CN(c5cc(Cl)c6cc(-c7ccccc7O)nnc6c5)C4)C3)no2)C(C)C)cc1 [Compound 163, (2S,4R)-1-((R)-2-(3-(6-(5-chloro-3-(2-hydroxyphenyl)cinnolin-7-yl)-2,6-diazaspiro[3.3]heptan-2-yl)isoxazol-5-yl)-3-methylbutanoyl)-4-hydroxy-N-((S)-1-(4-(4-methylthiazol-5-yl)phenyl)ethyl)pyrrolidine-2-carboxamide] | A (“A” indicates maximum degradation ≥75%)
> 75 | < 0.01 | < 0.01 | Cc1ncsc1-c1ccc([C@H](C)NC(=O)[C@@H]2C[C@@H](O)CN2C(=O)[C@@H](c2cc(N3CC4(C3)CN(c3cc5cc(-c6ccccc6O)nnc5cc3C(F)F)C4)no2)C(C)C)cc1 [Compound 164, (2S,4R)-1-((R)-2-(3-(6-(7-(difluoromethyl)-3-(2-hydroxyphenyl)cinnolin-6-yl)-2,6-diazaspiro[3.3]heptan-2-yl)isoxazol-5-yl)-3-methylbutanoyl)-4-hydroxy-N-((S)-1-(4-(4-methylthiazol-5-yl)phenyl)ethyl)pyrrolidine-2-carboxamide] | A (“A” indicates maximum degradation ≥75%)
> 75 | < 0.01 | < 0.01 | Cc1ncsc1-c1ccc([C@H](C)NC(=O)[C@@H]2C[C@@H](O)CN2C(=O)[C@@H](c2cc(N3CCC4(CC3)CN(c3ccc5nnc(-c6ccccc6O)cc5c3)CCN4C)no2)C(C)C)cc1 [Compound 165, (2S,4R)-4-hydroxy-1-((R)-2-(3-(4-(3-(2-hydroxyphenyl)cinnolin-6-yl)-1-methyl-1,4,9-triazaspiro[5.5]undecan-9-yl)isoxazol-5-yl)-3-methylbutanoyl)-N-((S)-1-(4-(4-methylthiazol-5-yl)phenyl)ethyl)pyrrolidine-2-carboxamide] | A (“A” indicates maximum degradation ≥75%)
> 75 | < 0.01 | > 0.01 | Cc1ncsc1-c1ccc([C@H](C)NC(=O)[C@@H]2C[C@@H](O)CN2C(=O)[C@@H](c2cc(N3CCCC4(CN(c5ccc6nnc(-c7ccccc7O)cc6c5)C4)C3)no2)C(C)C)cc1 [Compound 166, (2S,4R)-4-hydroxy-1-((R)-2-(3-(2-(3-(2-hydroxyphenyl)cinnolin-6-yl)-2,6-diazaspiro[3.5]nonan-6-yl)isoxazol-5-yl)-3-methylbutanoyl)-N-((S)-1-(4-(4-methylthiazol-5-yl)phenyl)ethyl)pyrrolidine-2-carboxamide] | A (“A” indicates maximum degradation ≥75%)
< 50 | < 0.01 |  | Cc1ncsc1-c1ccc([C@H](C)NC(=O)[C@@H]2C[C@@H](O)CN2C(=O)[C@@H](c2cc(N3CC4(C3)CN(c3cc5nnc(-c6ccccc6O)cc5cc3C#N)C4)no2)C(C)C)cc1 [Compound 167, (2S,4R)-1-((R)-2-(3-(6-(6-cyano-3-(2-hydroxyphenyl)cinnolin-7-yl)-2,6-diazaspiro[3.3]heptan-2-yl)isoxazol-5-yl)-3-methylbutanoyl)-4-hydroxy-N-((S)-1-(4-(4-methylthiazol-5-yl)phenyl)ethyl)pyrrolidine-2-carboxamide] | A (“A” indicates maximum degradation ≥75%)
> 50 | < 0.01 | < 0.01 | Cc1ncsc1-c1ccc([C@H](C)NC(=O)[C@@H]2C[C@@H](O)CN2C(=O)[C@@H](c2cc(N3CC4(C3)CN(c3cc5nnc(-c6ccccc6O)cc5cc3C(F)F)C4)no2)C(C)C)cc1 [Compound 168, (2S,4R)-1-((R)-2-(3-(6-(6-(difluoromethyl)-3-(2-hydroxyphenyl)cinnolin-7-yl)-2,6-diazaspiro[3.3]heptan-2-yl)isoxazol-5-yl)-3-methylbutanoyl)-4-hydroxy-N-((S)-1-(4-(4-methylthiazol-5-yl)phenyl)ethyl)pyrrolidine-2-carboxamide] | A (“A” indicates maximum degradation ≥75%)
> 50 | < 0.01 | < 0.01 | Cc1ncsc1-c1ccc([C@H](C)NC(=O)[C@@H]2C[C@@H](O)CN2C(=O)[C@H](C(C)C)n2cc(N3CC4(CN(c5ccc6cc(-c7ccccc7O)nnc6c5)C4)C3)nn2)cc1 [Compound 169, (2S,4R)-4-hydroxy-1-((S)-2-(4-(6-(3-(2-hydroxyphenyl)cinnolin-7-yl)-2,6-diazaspiro[3.3]heptan-2-yl)-1H-1,2,3-triazol-1-yl)-3-methylbutanoyl)-N-((S)-1-(4-(4-methylthiazol-5-yl)phenyl)ethyl)pyrrolidine-2-carboxamide] | A (“A” indicates maximum degradation ≥75%)
< 50 | > 0.01 |  | Cc1ncsc1-c1ccc([C@H](C)NC(=O)[C@@H]2C[C@@H](O)CN2C(=O)[C@H](C(C)C)n2cc(-c3cc4cc(-c5ccccc5O)nnc4cc3C#N)nn2)cc1 [Compound 170, (2S,4R)-1-[(2S)-2-{4-[7-cyano-3-(2-hydroxyphenyl)cinnolin-6-yl]-1,2,3-triazol-1-yl}-3-methylbutanoyl]-4-hydroxy-N-[(1S)-1-[4-(4-methyl-1,3-thiazol-5-yl)phenyl]ethyl]pyrrolidine-2-carboxamide] | B (“B” indicates maximum degradation ≥50%)
> 75 | < 0.01 | < 0.01 | Cc1ncsc1-c1ccc([C@H](C)NC(=O)[C@@H]2C[C@@H](O)CN2C(=O)[C@H](C(C)C)n2cc(-c3cc4cc(-c5ccccc5O)nnc4cc3C(F)F)nn2)cc1 [Compound 171, (2S,4R)-1-((S)-2-(4-(7-(difluoromethyl)-3-(2-hydroxyphenyl)cinnolin-6-yl)-1H-1,2,3-triazol-1-yl)-3-methylbutanoyl)-4-hydroxy-N-((S)-1-(4-(4-methylthiazol-5-yl)phenyl)ethyl)pyrrolidine-2-carboxamide] | A (“A” indicates maximum degradation ≥75%)
> 50 | < 0.01 | < 0.01 | Cc1ncsc1-c1ccc([C@H](C)NC(=O)[C@@H]2C[C@@H](O)CN2C(=O)[C@H](C(C)C)n2cc(N3CC4(CN(c5ccc6nnc(-c7ccccc7O)cc6c5)C4)C3)nn2)cc1 [Compound 172, (2S,4R)-4-hydroxy-1-((S)-2-(4-(6-(3-(2-hydroxyphenyl)cinnolin-6-yl)-2,6-diazaspiro[3.3]heptan-2-yl)-1H-1,2,3-triazol-1-yl)-3-methylbutanoyl)-N-((S)-1-(4-(4-methylthiazol-5-yl)phenyl)ethyl)pyrrolidine-2-carboxamide] | A (“A” indicates maximum degradation ≥75%)
< 50 | > 0.01 |  | Cc1ncsc1-c1ccc([C@H](C)NC(=O)[C@@H]2C[C@@H](O)CN2C(=O)[C@@H](c2cc(N3CC4(CN(c5cc(C#N)c6cc(-c7ccccc7O)nnc6c5)C4)C3)no2)C(C)C)cc1 [Compound 173, (2S,4R)-1-((R)-2-(3-(6-(5-cyano-3-(2-hydroxyphenyl)cinnolin-7-yl)-2,6-diazaspiro [3.3]heptan-2-yl)isoxazol-5-yl)-3-methylbutanoyl)-4-hydroxy-N-((S)-1-(4-(4-methylthiazol-5-yl)phenyl)ethyl)pyrrolidine-2-carboxamide] | B (“B” indicates maximum degradation ≥50%)
